In the supplement of paper PMC13380429:
± gives the standard deviation of the averaged measurements.

Legend:
Settings in all cases: 72 h
HepG2 [1] = test: relative viability EC50 (midpoint between 100% and the lowest measured viability); higher = less toxic
Calu-3 [2] = test: as above
Vero E6 [3] = test: as above
U2OS [4] = test: as above
Caco-2 [5] = test: drug sensitivity score (DSS) for viability; higher = more toxic; extreme values may be limits of the assay
HepG2 [6] = test: as above
Calu-3 [7] = test: as above
Vero E6 [8] = test: as above
U2OS [9] = test: as above
Caco-2 [10] = test: cell viability relative to DMSO; higher = less toxic
HepG2 [11] = test: as above
Calu-3 [12] = test: as above
Vero E6 [13] = test: as above
U2OS [14] = test: as above
Caco-2 [15] = test: relative viability EC50 (midpoint between 100% and the lowest measured viability); higher = less toxic

Row | SMILES | relative viability EC50 (HepG2 [1]) [µM] | relative viability EC50 (Calu-3 [2]) [µM] | relative viability EC50 (Vero E6 [3]) [µM] | relative viability EC50 (U2OS [4]) [µM] | drug sensitivity score (Caco-2 [5]) | drug sensitivity score (HepG2 [6]) | drug sensitivity score (Calu-3 [7]) | drug sensitivity score (Vero E6 [8]) | drug sensitivity score (U2OS [9]) | cell viability (Caco-2 [10]; 1 nM) [%] | cell viability (Caco-2 [10]; 10 nM) [%] | cell viability (Caco-2 [10]; 100 nM) [%] | cell viability (Caco-2 [10]; 1000 nM) [%] | cell viability (Caco-2 [10]; 10000 nM) [%] | cell viability (HepG2 [11]; 1 nM) [%] | cell viability (HepG2 [11]; 10 nM) [%] | cell viability (HepG2 [11]; 100 nM) [%] | cell viability (HepG2 [11]; 1000 nM) [%] | cell viability (HepG2 [11]; 10000 nM) [%] | cell viability (Calu-3 [12]; 1 nM) [%] | cell viability (Calu-3 [12]; 10 nM) [%] | cell viability (Calu-3 [12]; 100 nM) [%] | cell viability (Calu-3 [12]; 1000 nM) [%] | cell viability (Calu-3 [12]; 10000 nM) [%] | cell viability (Vero E6 [13]; 1 nM) [%] | cell viability (Vero E6 [13]; 10 nM) [%] | cell viability (Vero E6 [13]; 100 nM) [%] | cell viability (Vero E6 [13]; 1000 nM) [%] | cell viability (Vero E6 [13]; 10000 nM) [%] | cell viability (U2OS [14]; 1 nM) [%] | cell viability (U2OS [14]; 10 nM) [%] | cell viability (U2OS [14]; 100 nM) [%] | cell viability (U2OS [14]; 1000 nM) [%] | cell viability (U2OS [14]; 10000 nM) [%] | relative viability EC50 (Caco-2 [15]) [µM]
1 | CC1=C(/C=C/C(C)=C/C=C/C(C)=C/C(=O)O)C(C)(C)CCC1 [tretinoin] | > 10 | > 10 | > 10 | > 10 | 0.9 ± 1.1 | 0 | 1.2 ± 0.28 | 0 | 0 | 103 ± 8.2 | 102 ± 10 | 97.5 ± 1.4 | 101 ± 1.9 | 74.5 ± 18 | 99.8 ± 2.9 | 102 ± 7 | 109.5 ± 0.64 | 101 ± 3.5 | 103 ± 6.5 | 106 ± 6.3 | 97.7 ± 1.7 | 106 ± 3.3 | 87.5 ± 2.5 | 85.4 ± 4.5 | 102 ± 5.2 | 101 ± 1.9 | 99.7 ± 3.3 | 98.3 ± 2.1 | 101 ± 1.9 | 98.8 ± 0.28 | 95.3 ± 4 | 94.3 ± 2.3 | 95.6 ± 0.57 | 90.7 ± 0.85 | –
2 | Cc1ccc(NC(=O)C(C)C)cc1C1CCN(Cc2ccc(Oc3ccc(F)c(F)c3)cc2)CC1 | 3.39 | – | > 10 | > 10 | 2 | 3.5 | – | 0.9 | 1.2 | 90.7 | 101 | 98.4 | 98.3 | 62.8 | 105 | 97.4 | 97.4 | 103 | 31.5 | – | – | – | – | – | 106 | 102 | 99.5 | 100 | 75.3 | 96.2 | 95.8 | 99.5 | 94.6 | 80.3 | –
3 | O=C(NC[C@H](O)CN1CCc2ccccc2C1)c1cc(NC2COC2)ncn1 | – | > 10 | > 10 | > 10 | 0 | 3.4 | 0 | 0 | 0 | 96.1 | 92 | 91 | 95.5 | 91.2 | 109 | 104 | 102 | 88.2 | 64.4 | 103 | 113 | 104 | 102 | 91 | 97.5 | 97.2 | 100 | 95.8 | 98.9 | 102 | 97 | 97.5 | 100 | 101 | > 10
4 | CO[C@@H](C(=O)N1Cc2[nH]nc(NC(=O)c3ccc(N4CCN(C)CC4)cc3)c2C1)c1ccccc1 [danusertib] | 0.192 | – | > 10 | 1.35 | 2.9 | 10.7 | 7.5 | 0.4 | 6.8 | 94.7 | 95.4 | 94.9 | 82.9 | 71.7 | 93.4 | 95.9 | 78.3 | 55.8 | 42.6 | 89 | 93.8 | 77.1 | 76.9 | 52.9 | 104 | 101 | 104 | 98.6 | 84.2 | 99.6 | 103 | 93.9 | 74.8 | 31 | –
5 | Cc1cc(Nc2ncnc3ccc(NC4=NC(C)(C)CO4)cc23)ccc1Oc1ccn2ncnc2c1 [tucatinib] | > 10 | 0.191 | > 10 | > 10 | 3.8 | 0.2 | 13.7 | 2 | 0.1 | 98.9 | 103 | 99.8 | 92.5 | 52 | 101 | 96 | 103 | 98.4 | 87.1 | 105 | 93.3 | 70.7 | 47.3 | 28.4 | 99.4 | 95.8 | 95.1 | 86.9 | 75.6 | 100 | 104 | 95.3 | 98.2 | 87.9 | –
6 | CN1c2ccccc2C(=O)N2CCc3c([nH]c4ccccc34)C21 (stereo in doubt) [evodiamine] | 0.508 | – | 1.27 | 1.44 | 5.2 | 9.9 | 3.8 | 6.7 | 5.5 | 101 | 99.6 | 104 | 76.1 | 55.7 | 91.3 | 94.5 | 98.6 | 47.3 | 36.3 | 96.8 | 89.9 | 96.7 | 80.6 | 62.4 | 89.9 | 100 | 95.8 | 74.1 | 33.7 | 94.7 | 93.7 | 99.7 | 83.6 | 43 | –
7 | COc1ccc(-c2csc(NC(=O)[C@H]3CCCCN3S(=O)(=O)c3ccc(C)cc3)n2)cc1 [ML277] | – | > 10 | > 10 | > 10 | 2.6 | 1.9 | 0 | 0 | 0 | 89.5 | 93.2 | 97.8 | 90.6 | 69.2 | 97.7 | 99.7 | 112 | 101 | 60.1 | 91 | 104 | 92.1 | 92.6 | 99.2 | 109 | 102 | 105 | 105 | 99.9 | 98.4 | 98.1 | 101 | 94.2 | 90.1 | –
8 | COc1cc2nc(N3CCCN(C)CC3)nc(NC3CCN(Cc4ccccc4)CC3)c2cc1OC | 1.37 | 2.62 | 2.77 | 2.69 | 1.9 | 8.8 | 5.7 | 4.6 | 3.5 | 96.1 | 104 | 88.9 | 108 | 54.9 | 98.8 | 85.4 | 91.4 | 67.5 | 10.3 | 84.2 | 100 | 89.7 | 94.1 | 12.6 | 106 | 97.4 | 99.7 | 96.2 | 26.1 | 98 | 100 | 95 | 96.6 | 43.8 | –
9 | Cc1cc(C)cc(NC(=O)Cc2ccc(OC(C)(C)C(=O)O)cc2)c1 [efaproxiral] | > 10 | > 10 | > 10 | > 10 | – | 0 | 0 | 0 | 0 | – | – | – | – | – | 107 | 107 | 104 | 101 | 96.4 | 98.6 | 103 | 104 | 101 | 105 | 98.5 | 97.5 | 101 | 101 | 98.2 | 97.7 | 95.7 | 98.9 | 93.5 | 94.3 | –
10 | CCN(CC)Cc1ccc(C(=O)N(CCc2ccccc2OC)[C@@H]2CCNC2)cc1 | – | – | > 10 | > 10 | 0 | 1 | – | 0 | 0 | 99.2 | 93 | 91.6 | 101 | 98.2 | 97.9 | 96.6 | 108 | 104 | 70.5 | – | – | – | – | – | 90.3 | 97.9 | 91.5 | 93.1 | 99.9 | 95.5 | 95.7 | 96.9 | 97.2 | 99.3 | > 10
11 | Cc1cc2c(N3CCCC3)nc(N3CCCC3)nc2n1C | > 10 | > 10 | > 10 | > 10 | 1.5 | 0.7 | 0 | 0 | 0 | 103 | 92.2 | 96.9 | 97.6 | 71.8 | 109 | 94.3 | 101 | 100 | 78.4 | 103 | 110 | 93.5 | 94.5 | 106 | 104 | 96 | 104 | 99.3 | 93.5 | 96.2 | 101 | 101 | 101 | 93.5 | –
12 | Nc1nccc(-c2ccc3noc(-c4ccc(Cl)cc4)c3c2)n1 [PIM-1-Inhibitor-2] | – | > 10 | > 10 | > 10 | 0 | 3.4 | 0 | 0 | 0 | 98 | 97 | 91.9 | 102 | 98.2 | 96.8 | 94.2 | 92.6 | 92.7 | 57.7 | 100 | 91.4 | 99 | 97 | 88.8 | 97.7 | 103 | 104 | 98.5 | 99.7 | 98.3 | 104 | 93.2 | 99.6 | 93.6 | > 10
